Experimental data as given in ChEMBL document CHEMBL4270535, “Facile synthesis of vanillin-based novel bischalcones identifies one that induces apoptosis and displays synergy with Artemisinin in killing chloroquine resistant Plasmodium falciparum” (Eur J Med Chem, 2018).

Tests used:
[1] = system: Plasmodium falciparum; experiment: Antiplasmodial activity against synchronized ring stage of chloroquine-sensitive Plasmodium falciparum 3D7 infected in human erythrocytes after 48 hrs by SYBR Green 1 dye based fluorescence assay; assay type: functional, organism-based; settings: 3D7, 48 h
[2] = system: Plasmodium falciparum; experiment: Antiplasmodial activity against synchronized ring stage of chloroquine-resistant Plasmodium falciparum INDO infected in human erythrocytes after 48 hrs by SYBR Green 1 dye based fluorescence assay; assay type: functional, organism-based
[3] = system: Plasmodium falciparum; experiment: Antiplasmodial activity against synchronized ring stage of chloroquine-resistant Plasmodium falciparum Dd2 infected in human erythrocytes after 48 hrs by SYBR Green 1 dye based fluorescence assay; assay type: functional, organism-based; settings: Dd2, 48 h
[4] = Resistance index, ratio of IC50 for synchronized ring stage of chloroquine-resistant Plasmodium falciparum INDO infected in human erythrocytes to IC50 for synchronized ring stage of chloroquine-sensitive Plasmodium falciparum 3D7 infected in human erythrocytes; assay type: functional
[5] = Resistance index, ratio of IC50 for synchronized ring stage of chloroquine-resistant Plasmodium falciparum Dd2 infected in human erythrocytes to IC50 for synchronized ring stage of chloroquine-sensitive Plasmodium falciparum 3D7 infected in human erythrocytes; assay type: functional
[6] = Selectivity index, ratio of IC50 for human HeLa cells to IC50 for synchronized ring stage of chloroquine-sensitive Plasmodium falciparum 3D7 infected in human erythrocytes; assay type: toxicity, cell-based; settings: read-out: Ratio IC50
[7] = Selectivity index, ratio of IC50 for mouse L929 cells to IC50 for synchronized ring stage of chloroquine-sensitive Plasmodium falciparum 3D7 infected in human erythrocytes; assay type: toxicity, cell-based; settings: read-out: Ratio IC50

Structure (SMILES) | IC50 [1] | IC50 [2] | IC50 [3] | Ratio IC50 [4] | Ratio IC50 [5] | selectivity ratio [6] | selectivity ratio [7]
C=CCOc1c(OC)cc(/C=C/C(=O)c2ccc([N+](=O)[O-])cc2)cc1-c1cc(/C=C/C(=O)c2ccc([N+](=O)[O-])cc2)cc(OC)c1OCC=C | 25 µM | 5 µM | 9.3 µM | 0.2 | 0.37 | > 4 | 3.2
C=CCOc1c(OC)cc(/C=C/C(=O)c2ccc(OC)cc2)cc1-c1cc(/C=C/C(=O)c2ccc(OC)cc2)cc(OC)c1OCC=C | 57 µM |  |  |  |  |  | 
C=CCOc1c(OC)cc(/C=C/C(=O)c2ccccc2)cc1-c1cc(/C=C/C(=O)c2ccccc2)cc(OC)c1OCC=C | 7 µM | 3.5 µM | 2.1 µM | 0.5 | 0.3 | > 28.6 | 7.1
C=CCOc1c(OC)cc(/C=C/C(=O)c2ccc(OCCC)cc2)cc1-c1cc(/C=C/C(=O)c2ccc(OCCC)cc2)cc(OC)c1OCC=C | 1.5 µM | 12.2 µM | 11.6 µM | 8.1 | 7.7 | > 66.7 | > 66.7
C=CCOc1ccc(C(=O)/C=C/c2cc(OC)c(OCC=C)c(-c3cc(/C=C/C(=O)c4ccc(OCC=C)cc4OCC=C)cc(OC)c3OCC=C)c2)c(OCC=C)c1 | 63 µM |  |  |  |  |  | 
C=CCOc1c(OC)cc(/C=C/C(=O)c2cc3ccccc3oc2=O)cc1-c1cc(/C=C/C(=O)c2cc3ccccc3oc2=O)cc(OC)c1OCC=C | 18.4 µM |  |  |  |  |  | 
COc1cc(/C=C/C(=O)c2ccccc2)cc(-c2cc(/C=C/C(=O)c3ccccc3)cc(OC)c2OC)c1OC | 9.3 µM | 3.7 µM | 3.7 µM | 0.4 | 0.4 | 12.4 | 1.1
C=CCOc1c(OC)cc(/C=C/C(=O)c2ccc(Cl)cc2)cc1-c1cc(/C=C/C(=O)c2ccc(Cl)cc2)cc(OC)c1OCC=C | > 50 µM |  |  |  |  |  | 
C=CCOc1c(OC)cc(/C=C/C(=O)c2cc(OC)c(OC)c(OC)c2)cc1-c1cc(/C=C/C(=O)c2cc(OC)c(OC)c(OC)c2)cc(OC)c1OCC=C | 5.5 µM | 2.2 µM | 1.7 µM | 0.4 | 0.3 | > 36.4 | > 36.4
C=CCOc1ccc(/C=C/C(=O)c2cccc(C(=O)/C=C/c3ccc(OCC=C)c(OCC=C)c3)c2)cc1OCC=C | 18 µM | 13.7 µM | 18.9 µM | 0.76 | 1.05 | > 5.6 | > 5.6
C=CCOc1c(OC)cc(/C=C/C(=O)c2ccc3c(c2)OCO3)cc1-c1cc(/C=C/C(=O)c2ccc3c(c2)OCO3)cc(OC)c1OCC=C | 38 µM | 3.8 µM | 3.8 µM | 0.1 | 0.1 | > 2.6 | > 2.6
C=CCOc1ccc(C(=O)/C=C/c2cc(OC)c(OCC=C)c(-c3cc(/C=C/C(=O)c4ccc(OCC=C)cc4)cc(OC)c3OCC=C)c2)cc1 | 2 µM | > 50 µM | 16.6 µM | >25 | 8.3 | > 100 | > 100
C=CCOc1c(OC)cc(/C=C/C(=O)c2ccc(Br)cc2)cc1-c1cc(/C=C/C(=O)c2ccc(Br)cc2)cc(OC)c1OCC=C | > 50 µM |  |  |  |  |  | 
C=CCOc1ccc(/C=C/C(=O)c2cccc(C(=O)/C=C/c3ccc(OCC=C)c(OC)c3)c2)cc1OC | > 50 µM |  |  |  |  |  | 
